US20180044343A1, “BICYCLIC IMIDAZOLO DERIVATIVE” (Sumitomo Dainippon Pharma Co., Ltd., priority 2015, published 2018)

Each molecule was assayed against PDE1B (Homo sapiens, UniProt Q01064) (assay: In vitro HTRF PDE1 inhibition assay (PDE1B)). Details: in vitro PDE1B HTRF Assay; read-out: IC50.
Format: biochemical

PDE1B, sequence (Q01064 whole entry): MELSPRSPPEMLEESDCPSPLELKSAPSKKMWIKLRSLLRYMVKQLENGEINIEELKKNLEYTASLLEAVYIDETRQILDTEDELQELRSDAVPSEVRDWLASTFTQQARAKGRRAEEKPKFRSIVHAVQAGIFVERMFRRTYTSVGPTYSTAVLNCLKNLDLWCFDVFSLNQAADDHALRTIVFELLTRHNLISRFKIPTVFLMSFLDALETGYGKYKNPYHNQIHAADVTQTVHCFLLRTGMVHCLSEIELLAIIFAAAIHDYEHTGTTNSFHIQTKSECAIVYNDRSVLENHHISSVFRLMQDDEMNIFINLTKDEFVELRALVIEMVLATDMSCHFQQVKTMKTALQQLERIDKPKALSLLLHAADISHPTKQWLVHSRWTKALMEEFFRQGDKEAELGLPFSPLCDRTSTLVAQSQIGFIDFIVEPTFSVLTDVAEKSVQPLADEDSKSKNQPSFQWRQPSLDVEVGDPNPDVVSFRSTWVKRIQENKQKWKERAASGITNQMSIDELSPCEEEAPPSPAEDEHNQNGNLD

| SMILES | IC50 [nM] |
| --- | --- |
| Cn1c(OCc2cccc(C#N)c2)nn2c(C3CCOCC3)ncc2c1=O [Example 29] | 1000 to 10000 |
| Cn1c(OCc2ccc(-c3ccc(F)cc3)cc2)nn2c(C3CCOCC3)ncc2c1=O [Example 51] | 1000 to 10000 |
| CCn1c(OCCc2ccccc2)nn2c(C3CCOCC3)ncc2c1=O [Example 73] | < 1000 |
| CCn1c(OCCc2ccccc2F)nn2c(C3CCOCC3)ncc2c1=O [Example 74] | < 1000 |
| CCn1c(OCCc2cccc(F)c2)nn2c(C3CCOCC3)ncc2c1=O [Example 75] | < 1000 |
| CCn1c(OCC2(c3ccc(Cl)cc3)CC2)nn2c(C3CCOCC3)ncc2c1=O [Example 76] | < 1000 |
| CCn1c(OCCc2ccc(-c3ccccc3)cc2)nn2c(C3CCOCC3)ncc2c1=O [Example 77] | < 1000 |
| CCn1c(OCCc2ccc(C(F)(F)F)cc2)nn2c(C3CCOCC3)ncc2c1=O [Example 78] | < 1000 |
| CCn1c(OCc2ccc(-c3ccc(Cl)cc3)cc2)nn2c(C3CCOCC3)ncc2c1=O [Example 79] | < 1000 |
| CCn1c(OCc2ccc(-c3ccc(F)cc3)cc2)nn2c(C3CCOCC3)ncc2c1=O [Example 80] | 1000 to 10000 |
| CCn1c(OCc2ccc(-c3ccc(C)cc3)cc2)nn2c(C3CCOCC3)ncc2c1=O [Example 81] | < 1000 |
| CCn1c(OCC2(c3ccccc3)CC2)nn2c(C3CCOCC3)ncc2c1=O [Example 82] | < 1000 |
| CCn1c(OCc2ccc(-c3ccc(OC)cc3)cc2)nn2c(C3CCOCC3)ncc2c1=O [Example 83] | < 1000 |
| CCn1c(OCc2ccc(-c3ccc(C(F)(F)F)cc3)cc2)nn2c(C3CCOCC3)ncc2c1=O [Example 84] | < 1000 |
| CCn1c(OCc2ccc(-c3ccc(C#N)cc3)cc2)nn2c(C3CCOCC3)ncc2c1=O [Example 85] | < 1000 |
| CCn1c(OCC2CCC2)nn2c(C3CCOCC3)ncc2c1=O [Example 86] | < 1000 |
| CCn1c(OCC2CC(F)(F)C2)nn2c(C3CCOCC3)ncc2c1=O [Example 87] | < 1000 |
| CCn1c(OCC2CCCC2)nn2c(C3CCOCC3)ncc2c1=O [Example 88] | < 1000 |
| CCn1c(OCC2CCCCC2)nn2c(C3CCOCC3)ncc2c1=O [Example 89] | < 1000 |
| CCn1c(OC[C@H]2CC[C@@H](OC)CC2)nn2c(C3CCOCC3)ncc2c1=O [Example 90] | < 1000 |
| CCn1c(OC(C)C2CCC(F)(F)CC2)nn2c(C3CCOCC3)ncc2c1=O (centres unmarked) [Example 92] | < 1000 |

| SMILES | IC50 [nM] |
| --- | --- |
| CCn1c(OCCC2CCC(F)(F)CC2)nn2c(C3CCOCC3)ncc2c1=O [Example 93] | < 1000 |
| CCCn1c(OCC2CCC(F)(F)CC2)nn2c(C3CCOCC3)ncc2c1=O [Example 94] | < 1000 |
| O=c1c2cnc(C3CCOCC3)n2nc(OCC2CCC(F)(F)CC2)n1C1CC1 [Example 95] | < 1000 |
| CC(C)Cn1c(OCC2CCC(F)(F)CC2)nn2c(C3CCOCC3)ncc2c1=O [Example 96] | < 1000 |
| O=c1c2cnc(C3CCOCC3)n2nc(OCc2ccc(-c3ccccn3)cc2)n1CC1CC1 [Example 97] | < 1000 |
| O=c1c2cnc(C3CCOCC3)n2nc(OCCc2ccc(Cl)cc2)n1CC1CC1 [Example 98] | < 1000 |
| O=c1c2cnc(C3CCOCC3)n2nc(OCc2ccc(F)cc2)n1CC1CC1 [Example 99] | < 1000 |
| O=c1c2cnc(C3CCOCC3)n2nc(OCC2CCC(F)(F)CC2)n1CC1CC1 [Example 100] | < 1000 |
| CCOc1nn2c(C3CCOCC3)ncc2c(=O)n1CC1CCC(F)(F)CC1 [Example 102] | < 1000 |
| CC(C)Oc1nn2c(C3CCOCC3)ncc2c(=O)n1CC1CCC(F)(F)CC1 [Example 103] | < 1000 |
| O=c1c2cnc(C3CCOCC3)n2nc(OCC2CCC(F)(F)CC2)n1CC1CCC(F)(F)CC1 [Example 104] | < 1000 |
| COc1nn2c(C3CCOCC3)ncc2c(=O)n1CCC1CCC(F)(F)CC1 [Example 105] | < 1000 |
| COc1nn2c(C3CCOCC3)ncc2c(=O)n1Cc1ccccc1 [Example 107] | < 1000 |
| COc1nn2c(C3CCOCC3)ncc2c(=O)n1Cc1ccc(F)cc1 [Example 108] | < 1000 |
| Cn1c(OCC2CCOCC2)nn2c(C3CCC3)ncc2c1=O [Example 111] | < 1000 |
| COC(C)c1ncc2c(=O)n(C)c(OCC3CCC(F)(F)CC3)nn12 (centres unmarked) [Example 112] | < 1000 |
| COc1nn2c(C(C)OC)ncc2c(=O)n1CC1CCC(F)(F)CC1 (centres unmarked) [Example 114] | < 1000 |
| Cn1c(OCc2ccc(F)cc2)nn2c(C3CCOCC3)nc(Cl)c2c1=O [Example 117, 5-Chloro-2-[(4-fluorobenzyl)oxy]-3-methyl-7-(tetrahydro-2H-pyran-4-yl)imidazo[5,1-f][1,2,4]triazin-4(3H)-one] | < 1000 |
| CCn1c(OCCCc2ccccn2)nn2c(C3CCOCC3)nc(Cl)c2c1=O [Example 118] | < 1000 |
| CCn1c(OCC2CCC(F)(F)CC2)nn2c(C3CCOCC3)nc(Cl)c2c1=O [Example 119, 5-chloro-2-[(4,4-difluorocyclohexyl)methoxy]-3-ethyl-7-(tetrahydro-2H-pyran-4-yl)-imidazo[5,1-f][1,2,4]triazin-4(3H)-one] | < 1000 |
| CCn1c(OCC2CCC(F)(F)CC2)nn2c(C3CCOCC3)nc(C)c2c1=O [Example 121] | < 1000 |

Results, then the molecule that gave them:

| IC50 [nM] | SMILES |
| --- | --- |
| < 1000 | Cc1ccc(COc2nn3c(C(C)C)ncc3c(=O)n2C)nc1 [Example 2, 3-Methyl-2-[(5-methylpyridin-2-yl)methoxy]-7-(propan-2-yl)imidazo[5,1-f][1,2,4]triazin-4(3H)-one] |
| < 1000 | CC(C)c1ncc2c(=O)n(C)c(OCCc3ccncc3)nn12 [Example 3, 3-Methyl-7-(propan-2-yl)-2-[2-(pyridin-4-yl)ethoxy]imidazo[5,1-f][1,2,4]triazin-4(3H)-one] |
| < 1000 | CC(C)c1ncc2c(=O)n(C)c(OCc3cccnc3)nn12 [Example 5] |
| < 1000 | CC(C)c1ncc2c(=O)n(C)c(OCC(F)(F)F)nn12 [Example 9] |
| < 1000 | CC(C)COc1nn2c(C(C)C)ncc2c(=O)n1C [Example 11] |
| < 1000 | CC(C)c1ncc2c(=O)n(C)c(OCc3ccccn3)nn12 [Example 12] |
| < 1000 | CC(C)c1ncc2c(=O)n(C)c(OCc3ccc(F)cc3)nn12 [Example 14] |
| < 1000 | CC(C)c1ncc2c(=O)n(C)c(OCc3ccncc3)nn12 [Example 15] |
| < 1000 | CCn1c(OCc2ccccc2)nn2c(C(C)C)ncc2c1=O [Example 17] |
| < 1000 | CCn1c(OCc2cccnc2)nn2c(C(C)C)ncc2c1=O [Example 19] |
| < 1000 | Cn1c(OCc2ccncc2)nn2c(C3CCOCC3)ncc2c1=O [Example 25] |
| < 1000 | Cc1ccc(COc2nn3c(C4CCOCC4)ncc3c(=O)n2C)cc1 [Example 27] |
| < 1000 | Cn1c(OCc2ccc(Cl)cc2)nn2c(C3CCOCC3)ncc2c1=O [Example 28] |
| < 1000 | Cn1c(OCCCc2ccccn2)nn2c(C3CCOCC3)ncc2c1=O [Example 31] |
| < 1000 | Cn1c(OCC2CC(F)(F)C2)nn2c(C3CCOCC3)ncc2c1=O [Example 33] |
| < 1000 | Cn1c(OCCC2CCC(F)(F)CC2)nn2c(C3CCOCC3)ncc2c1=O [Example 39] |
| < 1000 | Cn1c(OCc2cccc(F)c2)nn2c(C3CCOCC3)ncc2c1=O [Example 40] |
| < 1000 | Cn1c(OCCCc2ccc(F)cn2)nn2c(C3CCOCC3)ncc2c1=O [Example 41] |
| < 1000 | Cc1ccc(CCCOc2nn3c(C4CCOCC4)ncc3c(=O)n2C)nc1 [Example 42] |
| < 1000 | Cn1c(OCCCc2ncccc2F)nn2c(C3CCOCC3)ncc2c1=O [Example 43] |
| < 1000 | Cn1c(OCc2ccc(-c3ccccn3)cc2)nn2c(C3CCOCC3)ncc2c1=O [Example 44] |
| < 1000 | Cn1c(OCCCc2cccnc2)nn2c(C3CCOCC3)ncc2c1=O [Example 46] |

| IC50 [nM] | SMILES |
| --- | --- |
| < 1000 | Cn1c(OCc2ccc(-c3ccccc3)cc2)nn2c(C3CCOCC3)ncc2c1=O [Example 47] |
| < 1000 | Cn1c(OCc2ccc(-c3ccc(Cl)cn3)cc2)nn2c(C3CCOCC3)ncc2c1=O [Example 50] |
| < 1000 | CC(Oc1nn2c(C3CCOCC3)ncc2c(=O)n1C)c1ccc(-c2ccccn2)cc1 (centres unmarked) [Example 52] |
| < 1000 | Cn1c(OCc2ccc(-c3ccc(F)cn3)cc2)nn2c(C3CCOCC3)ncc2c1=O [Example 53] |
| < 1000 | CCn1c(OCc2ccc(OC)cc2)nn2c(C3CCOCC3)ncc2c1=O [Example 54] |
| < 1000 | CCn1c(OCC(C)C)nn2c(C3CCOCC3)ncc2c1=O [Example 55] |
| < 1000 | CCn1c(OCc2ccc(F)cc2)nn2c(C3CCOCC3)ncc2c1=O [Example 56] |
| < 1000 | CCn1c(OCc2cc(F)ccc2F)nn2c(C3CCOCC3)ncc2c1=O [Example 57] |
| < 1000 | CCn1c(OCC2(C)COC2)nn2c(C3CCOCC3)ncc2c1=O [Example 58] |
| < 1000 | CCn1c(OCc2ccc(F)c(F)c2)nn2c(C3CCOCC3)ncc2c1=O [Example 59] |
| < 1000 | CCn1c(OCCc2ccncc2)nn2c(C3CCOCC3)ncc2c1=O [Example 60] |
| < 1000 | CCn1c(OCCCc2ccncc2)nn2c(C3CCOCC3)ncc2c1=O [Example 61] |
| < 1000 | CCn1c(OCCCOC)nn2c(C3CCOCC3)ncc2c1=O [Example 62] |
| < 1000 | CCn1c(OCCCc2ccccn2)nn2c(C3CCOCC3)ncc2c1=O [Example 63] |
| < 1000 | CCn1c(OCCc2ccccn2)nn2c(C3CCOCC3)ncc2c1=O [Example 64] |
| < 1000 | CCn1c(OCCCc2ncccc2F)nn2c(C3CCOCC3)ncc2c1=O [Example 65] |
| < 1000 | CCn1c(OCc2ccc(-c3ccccn3)cc2)nn2c(C3CCOCC3)ncc2c1=O [Example 67] |
| < 1000 | CCn1c(OCCCc2cccnc2)nn2c(C3CCOCC3)ncc2c1=O [Example 68] |
| < 1000 | CCn1c(OC(C)c2ccc(F)cc2)nn2c(C3CCOCC3)ncc2c1=O (centres unmarked) [Example 69] |
| < 1000 | CCn1c(OCCc2ccc(F)cc2)nn2c(C3CCOCC3)ncc2c1=O [Example 70] |
| < 1000 | CCn1c(OCCCc2ncccc2C)nn2c(C3CCOCC3)ncc2c1=O [Example 71] |
| < 1000 | CCn1c(OCCCc2cccc(C)n2)nn2c(C3CCOCC3)ncc2c1=O [Example 72] |
